Measured values reported in the supplement of paper PMC11208160.

Assay: recombinant UMI read abundance after kanamycin selection (control-corrected) (log10(CPM+1)); higher = more efficient recombination; extreme values may be limits of the assay; sequences stand for … in AGTGCAGAGAAAATCGGCCAGTTTTCTCTGCCTGCAGTCCGCATGCCGTGGGACCCCTTGGGTTCTAACCTGTTGCCTAGATTTATGCAGCGGACTGCCTTTCTCCCAAAGTGATAAACCGG…AGGTTGGTTTCACT; site = the 11-nt donor
Summary of the method: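 For the IS621 bridge recombinase, a pooled Escherichia coli screen tested donor and donor-binding-loop pairs. Cells received the pair library together with a target plasmid encoding a fixed target and T7-inducible recombinase, then went onto IPTG (0.07 mM) plus kanamycin or unselected plates in duplicate. After PCR across the donor–target junction and sequencing, recombinant UMI counts were normalized to CPM, averaged, and scaled by control-derived factors. Each value is given as log10(CPM+1).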

Row | Sequence | recombinant UMI read abundance (log10)
1 | GGACAGACATGGACCGGTTTTCCCGGTAATCCGTATTTGCC (site GGAGAGACTGG) | 0
2 | GGACAGACATGGACCGGTTTTCCCGGTAATCCGTATTTGCC (site GGATAGACTGG) | 1.84
3 | GGACAGTCATGGACCGGTTTTCCCGGTAATCCGTATTTGTC (site GGACAGTCTGA) | 3.04
4 | GGACCAACATGGACCGGTTTTCCCGGTAATCCGTATTTGTA (site GGACCAACTTA) | 1.09
5 | GGACCAACATGGACCGGTTTTCCCGGTAATCCGTATTTGTA (site GGCCCAACTTA) | 0.00566
6 | GGACCAACATGGACCGGTTTTCCCGGTAATCCGTATTTGTA (site GGGCCAACTTA) | 0.0083
7 | GGACCAACATGGACCGGTTTTCCCGGTAATCCGTATTTGTA (site GGTCCAACTTA) | 0.0428
8 | GGACGTACATGGACCGGTTTTCCCGGTAATCCGTATTTGTG (site GGACGTACTCA) | 1.09
9 | GGACTGGCATGGACCGGTTTTCCCGGTAATCCGTATTTGGT (site GGAATGGCTAC) | 0.00409
10 | GGACTGGCATGGACCGGTTTTCCCGGTAATCCGTATTTGGT (site GGACTGGCTAC) | 0.371
11 | GGACTGGCATGGACCGGTTTTCCCGGTAATCCGTATTTGGT (site GGAGTGGCTAC) | 0.0324
12 | GGACTGGCATGGACCGGTTTTCCCGGTAATCCGTATTTGGT (site GGATTGGCTAC) | 0.0234
13 | GGACTTCCATGGACCGGTTTTCCCGGTAATCCGTATTTGGT (site GGACTTCCTAC) | 1.16
14 | GGAGAGACATGGACCGGTTTTCCCGGTAATCCGTATTTGCC (site GGAAAGACTGG) | 0
15 | GGAGAGACATGGACCGGTTTTCCCGGTAATCCGTATTTGCC (site GGACAGACTGG) | 0
16 | GGAGAGACATGGACCGGTTTTCCCGGTAATCCGTATTTGCC (site GGAGAGACTGG) | 0
17 | GGAGAGACATGGACCGGTTTTCCCGGTAATCCGTATTTGCC (site GGATAGACTGG) | 0
18 | GGAGATTCATGGACCGGTTTTCCCGGTAATCCGTATTTGAC (site GGAGATTCTGT) | 0
19 | GGAGCACCATGGACCGGTTTTCCCGGTAATCCGTATTTGCA (site GGAGCACCTTG) | 0

Row | Sequence | recombinant UMI read abundance (log10)
20 | GGAGCACCATGGACCGGTTTTCCCGGTAATCCGTATTTGCA (site GGCGCACCTTG) | 0
21 | GGAGCACCATGGACCGGTTTTCCCGGTAATCCGTATTTGCA (site GGGGCACCTTG) | 0
22 | GGAGCACCATGGACCGGTTTTCCCGGTAATCCGTATTTGCA (site GGTGCACCTTG) | 0.00599
23 | GGAGCCCCATGGACCGGTTTTCCCGGTAATCCGTATTTGGG (site GGAGCCCCTCC) | 0.00903
24 | GGAGGCCCATGGACCGGTTTTCCCGGTAATCCGTATTTGCC (site GGAGGCCCTGG) | 0
25 | GGAGGTACATGGACCGGTTTTCCCGGTAATCCGTATTTGAC (site GAAGGTACTGT) | 0.759
26 | GGAGGTACATGGACCGGTTTTCCCGGTAATCCGTATTTGAC (site GCAGGTACTGT) | 0.553
27 | GGAGGTACATGGACCGGTTTTCCCGGTAATCCGTATTTGAC (site GGAGGTACTGT) | 1.39
28 | GGAGGTACATGGACCGGTTTTCCCGGTAATCCGTATTTGAC (site GTAGGTACTGT) | 0
29 | GGAGTAGCATGGACCGGTTTTCCCGGTAATCCGTATTTGGT (site GGAGTAGCTAC) | 1.18
30 | GGAGTAGCATGGACCGGTTTTCCCGGTAATCCGTATTTGGT (site GGAGTCGCTAC) | 0.0165
31 | GGAGTAGCATGGACCGGTTTTCCCGGTAATCCGTATTTGGT (site GGAGTGGCTAC) | 0.49
32 | GGAGTAGCATGGACCGGTTTTCCCGGTAATCCGTATTTGGT (site GGAGTTGCTAC) | 0
33 | GGAGTATCATGGACCGGTTTTCCCGGTAATCCGTATTTGAC (site CTAGTATCTGT) | 0
34 | GGAGTATCATGGACCGGTTTTCCCGGTAATCCGTATTTGAC (site GGAGTATCTGT) | 2.66
35 | GGAGTCGCATGGACCGGTTTTCCCGGTAATCCGTATTTGCG (site GAAGTCGCTCG) | 0.00287
36 | GGAGTCGCATGGACCGGTTTTCCCGGTAATCCGTATTTGCG (site GCAGTCGCTCG) | 0.021
37 | GGAGTCGCATGGACCGGTTTTCCCGGTAATCCGTATTTGCG (site GGAGTCGCTCG) | 1.28
38 | GGAGTCGCATGGACCGGTTTTCCCGGTAATCCGTATTTGCG (site GTAGTCGCTCG) | 0.0226

Row | Sequence | recombinant UMI read abundance (log10)
39 | GGAGTCTCATGGACCGGTTTTCCCGGTAATCCGTATTTGTC (site GGAGTCTCTGA) | 2.36
40 | GGAGTGCCATGGACCGGTTTTCCCGGTAATCCGTATTTGGA (site GGAGTGCCTTC) | 0.0188
41 | GGAGTGTCATGGACCGGTTTTCCCGGTAATCCGTATTTGGT (site GGAGTGACTAC) | 0.192
42 | GGAGTGTCATGGACCGGTTTTCCCGGTAATCCGTATTTGGT (site GGAGTGCCTAC) | 0.00939
43 | GGAGTGTCATGGACCGGTTTTCCCGGTAATCCGTATTTGGT (site GGAGTGGCTAC) | 0.0122
44 | GGAGTGTCATGGACCGGTTTTCCCGGTAATCCGTATTTGGT (site GGAGTGTCTAC) | 1.71
45 | GGATAATCATGGACCGGTTTTCCCGGTAATCCGTATTTGAA (site GGATAATCTTT) | 2.84
46 | GGATAGACATGGACCGGTTTTCCCGGTAATCCGTATTTGAC (site GGATAGACTGA) | 0
47 | GGATAGACATGGACCGGTTTTCCCGGTAATCCGTATTTGAC (site GGATAGACTGC) | 0.822
48 | GGATAGACATGGACCGGTTTTCCCGGTAATCCGTATTTGAC (site GGATAGACTGG) | 1.9
49 | GGATAGACATGGACCGGTTTTCCCGGTAATCCGTATTTGAC (site GGATAGACTGT) | 3.21
50 | GGATAGACATGGACCGGTTTTCCCGGTAATCCGTATTTGCC (site AGATAGACTGG) | 2.1
51 | GGATAGACATGGACCGGTTTTCCCGGTAATCCGTATTTGCC (site CGATAGACTGG) | 0.635
52 | GGATAGACATGGACCGGTTTTCCCGGTAATCCGTATTTGCC (site GAATAGACTGG) | 1.5
53 | GGATAGACATGGACCGGTTTTCCCGGTAATCCGTATTTGCC (site GCATAGACTGG) | 2.11
54 | GGATAGACATGGACCGGTTTTCCCGGTAATCCGTATTTGCC (site GGAAAGACTGG) | 0
55 | GGATAGACATGGACCGGTTTTCCCGGTAATCCGTATTTGCC (site GGACAGACTGG) | 2.55
56 | GGATAGACATGGACCGGTTTTCCCGGTAATCCGTATTTGCC (site GGAGAGACTGG) | 0
57 | GGATAGACATGGACCGGTTTTCCCGGTAATCCGTATTTGCC (site GGATAAACTGG) | 2.06
